Values quoted from earlier work as cited in PMC11369081, “Molecular mechanism of prolactin-releasing peptide recognition and signaling via its G protein-coupled receptor” (Cell Discovery, 2024).
Ends that are not written are not given here.

Tested on: PrRPR
Details: cited from earlier work
Protocol: In both structures, the intramolecular motif of W8, Y9, and R12 within PrRP20 stabilizes its α-helical structure (Fig. 2h). […] Th ...

Substance	affinity of shortest effective analog (deletion analysis of PrRP20 N-terminal region, vs PrRP20, ref [9])	activity in vitro (structure-activity relationship studies, ref [21])
C-terminal heptapeptide (I14–F20): shortest effective analog is a C-terminal heptapeptide (I14–F20) (IRPVGRF; ends and bridges not checked; UniProt P81277 47-53, looked up, fragment)	substantially lower affinity	
PrRP20 analog (W8–F20): PrRP20 analog (W8–F20) (WYASRGIRPVGRF; ends and bridges not checked; UniProt P81277 41-53, looked up, fragment)		did not show reduced activity in vitro
